In paper PMC8221158, “Novel pyrrolizines bearing 3,4,5-trimethoxyphenyl moiety: design, synthesis, molecular docking, and biological evaluation as potential multi-target cytotoxic agents” (Journal of Enzyme Inhibition and Medicinal Chemistry, 2021):
Read-outs that look alike come from different tables or passages of the source.

Assays:
[1] = test system: MCF-7, HCT116, and A2780 cancer cell lines; assay: MTT assay, three cancer cell lines taken together (average, overall range); format: cell-based, human; conditions: for IC50: Homo sapiens
Experimental: Cells from flasks of 70–80% confluency were separately seeded in 96-well flat-bottom microculture plates (Nalgene-Nunc, Thermo Fisher Scientific, Roskilde, Denmark) at a density of 3 × 10^3 cells (MCF-7, A2780, and MRC-5), 1 × 10^4 cells (HCT116), to a volume of 180 μL/well of culture medium. […] The final concentrations of each compound in wells were: 0–50 μM in 200 μL of media (DMSO 0.1%). Lapatinib (Cayman, Ann Arbor, MI) was used as a positive control at the same final concentrations. Medium only (20 μL) was added to each control well, and each concentration was tested in triplicates (n = 3). Following incubation for 72 h, 50 μL MTT was added into each well. Plates were incubated for 3 h, the supernatant was aspirated, and 100 μL of DMSO was added to each well. The optical density (OD) of the purple formazan is proportional to the number of viable cells. […] The absorbance of the reduced MTT was determined using a microplate reader A570 nm.

normal MRC-5 cells = assay: MTT assay, normal cells (cytotoxic selectivity); format: cell-based; conditions: Homo sapiens, MRC5, 72 h treatment, n = 3, read-out: IC50 (µM ± SD) MRC-5
Experimental: (§1) MCF-7 (human breast adenocarcinoma), A2780 (human ovarian cancer) and HCT116 (human colorectal carcinoma), and MRC-5 (normal foetal lung fibroblast) cell lines were bought from the ATCC and were cultured in flasks which were incubated at 37 °C in an atmosphere of 5% CO2, 95% air, and 100% relative humidity, to maintain continuous logarithmic growth. MCF-7, A2780, and HCT116 were maintained in RPMI-1640 media (100 U/mL penicillin, 100 µg/mL streptomycin, and 10% foetal bovine serum, Gibco, Carlsbad, CA). MRC-5 cells were maintained in EMEM (100 U/mL penicillin, 100 µg/mL streptomycin, and 10% foetal bovine serum, Gibco, Carlsbad, CA). Doxorubicin (5 μg/mL, for three months) added for RPMI-1640 media containing MCF7 cells was used to develop doxorubicin-resistant MCF7/ADR cells. All cancer and normal cell lines were cultured according to our previous report. Cells were used within 10–20 passages and were checked for mycoplasma every 6 months, by measuring the bioluminescence (Myco Alert sample detection kit; Lonza, Basel, Switzerland) using the multiplate reader (Synergy HT, BioTek, Winooski, VT).
(§2) The MTT assay was used to measure the cytotoxicity and growth inhibitory activities and cytotoxicity of the new compounds according to our previous report[13]^,[17]. Cells from flasks of 70–80% confluency were separately seeded in 96-well flat-bottom microculture plates (Nalgene-Nunc, Thermo Fisher Scientific, Roskilde, Denmark) at a density of 3 × 10^3 cells (MCF-7, A2780, and MRC-5), 1 × 10^4 cells (HCT116), to a volume of 180 μL/well of culture medium. A Neubauer haemocytometer was used for cell counting. Cells were incubated at 37 °C overnight to allow attachment to the wells. The final concentrations of each compound in wells were: 0–50 μM in 200 μL of media (DMSO 0.1%). Lapatinib (Cayman, Ann Arbor, MI) was used as a positive control at the same final concentrations. Medium only (20 μL) was added to each control well, and each concentration was tested in triplicates (n = 3). Following incubation for 72 h, 50 μL MTT was added into each well. Plates were incubated for 3 h, the supernatant was aspirated, and 100 μL of DMSO was added to each well. The optical density (OD) of the purple formazan is proportional to the number of viable cells. […] GraphPad Prism version 5.00 for Windows was used for analysis (La Jolla, CA). Cytotoxicity of the new compounds was calculated after treatment of cancer/normal cell lines for 72 h. The absorbance of the reduced MTT was determined using a microplate reader A570 nm.
Selectivity towards cancerous cells is one of the important issues which must be considered during the discovery and development of new anticancer agents. To assess the toxicity and selectivity of the new compounds (15a–e, 16a–e, 20, and 21), their growth inhibitory activities against normal human foetal lung fibroblast MRC-5 cells were evaluated using the MTT assay. […] The selectivity of the new compounds towards each of the three cancer cell lines was calculated by dividing their IC50 values against normal MRC-5 cells by their IC50 values against the corresponding cancer cell line (Table 3).

A2780 = assay: MTT cell proliferation assay; format: cell-based, human; conditions: for IC50: Homo sapiens, A2780, MTT, 72 h treatment, n = 3, read-out: IC50 (µM ± SD) A2780; for Selectivity index A2780: IC50 MRC-5 / IC50 A2780
Experimental: as §1, §2
(§3) The cytotoxic activity of the new compounds (15a–e, 16a–e, 20, and 21) was evaluated in vitro using MTT assay. The MTT assay depends on the reduction of the yellow tetrazole dye (MTT) to the purple formazan by the active mitochondrial dehydrogenase enzymes indicating the viability of the cells which can be measured as OD. The new compounds were evaluated against three non-resistant cancer cell lines: MCF-7, and A2780 cell lines were selected to compare cytotoxicity of the new compounds with the previously reported results of compounds 9a,b[13]. Cytotoxicity of the new compounds was also evaluated also against HCT116 cells which lacks COX-2 protein[33]^,[34].

HCT116 = assay: MTT cell proliferation assay; format: cell-based, human; conditions: for IC50: Homo sapiens, HCT-116, MTT, 72 h treatment, n = 3, read-out: IC50 (µM ± SD) HCT116; for Selectivity index HCT116: IC50 MRC-5 / IC50 HCT116
Experimental: as §1, §2, §3

MCF-7 = assay: MTT cell proliferation assay; format: cell-based, human; conditions: for IC50: Homo sapiens, MCF7, MTT, 72 h treatment, n = 3, read-out: IC50 (µM ± SD) MCF-7; for Selectivity index MCF-7: IC50 MRC-5 / IC50 MCF-7
Experimental: as §1, §2, §3

[2] = MCF-7, HCT116, A2780, read-out: Average of the three IC50 values against the three cancer cell lines

melting point	IC50 [1, 2]	IC50 (A2780)	IC50 (HCT116)	IC50 (MCF-7)	IC50 ([1]; MTT, 72 h, range over MCF-7, HCT116, A2780, read-out: IC50 against the three cancer cell lines)	SMILES	IC50 (normal MRC-5 cells)	Selectivity index A2780 (A2780)	Selectivity index HCT116 (HCT116)	Selectivity index MCF-7 (MCF-7)	fold increase in cytotoxicity against the three cancer cell lines ([1]; relative to compound 15a (ring expansion))
242 to 244 °C	21 µM	25.8 ± 4.99 µM	0.353 ± 0.088 µM	36.9 ± 4.4 µM	–	COc1cc(C=Nc2c(C#N)c3n(c2C(=O)Nc2ccccc2)CCC3)cc(OC)c1OC [15a, 7-Cyano-N-phenyl-6-((3,4,5-trimethoxybenzylidene)amino)-2,3-dihydro-1H-pyrrolizine-5-carboxamide]	1.74 ± 0.149 µM	0.07	4.92	0.05	–
271 to 273 °C	7.45 µM	0.07 ± 0.002 µM	0.534 ± 0.204 µM	21.8 ± 3.18 µM	–	COc1cc(C=Nc2c(C#N)c3n(c2C(=O)Nc2ccc(Cl)cc2)CCC3)cc(OC)c1OC [15d, N-(4-Chlorophenyl)-7-cyano-6-((3,4,5-trimethoxybenzylidene)amino)-2,3-dihydro-1H-pyrrolizine-5-carboxamide]	2.07 ± 0.054 µM	29.61	3.88	0.10	–
247 to 249 °C	2.3 µM	0.938 ± 0.116 µM	0.247 ± 0.069 µM	5.72 ± 0.185 µM	–	COc1cc(C=Nc2c(C#N)c3n(c2C(=O)Nc2ccccc2)CCCC3)cc(OC)c1OC [compound 20, 1-Cyano-N-phenyl-2-((3,4,5-trimethoxybenzylidene)amino)-5,6,7,8-tetrahydroindolizine-3-carboxamide]	1.52 ± 0.103 µM	1.62	6.14	0.27	1.4–27.5 fold
259 to 261 °C	0.549 µM	0.144 ± 0.012 µM	0.032 ± 0.014 µM	1.47 ± 0.452 µM	–	COc1ccc(NC(=O)c2c(NC(=O)c3cc(OC)c(OC)c(OC)c3)c(C#N)c3n2CCC3)cc1 [16c, 7-Cyano-N-(4-methoxyphenyl)-6-(3,4,5-trimethoxybenzamido)-2,3-dihydro-1H-pyrrolizine-5-carboxamide]	0.665 ± 0.191 µM	4.62	20.78	0.45	–
–	8.83 µM	9.72 ± 0.845 µM	10 ± 1.13 µM	6.69 ± 1.09 µM	6.69 to 10 µM	CS(=O)(=O)CCNCc1ccc(-c2ccc3ncnc(Nc4ccc(OCc5cccc(F)c5)c(Cl)c4)c3c2)o1 [Lapatinib, reference compound]	13.7 ± 2.9 µM	1.40	1.36	2.04	–
263 to 265 °C	0.251 µM	0.041 ± 0.008 µM	0.096 ± 0.015 µM	0.616 ± 0.01 µM	–	COc1ccc(NC(=O)c2c(N=Cc3cc(OC)c(OC)c(OC)c3)c(C#N)c3n2CCC3)cc1 [15c, 7-Cyano-N-(4-methoxyphenyl)-6-((3,4,5-trimethoxybenzylidene)amino)-2,3-dihydro-1H-pyrrolizine-5-carboxamide]	1.98 ± 0.561 µM	48.27	20.47	3.21	–
–	0.458 µM	0.598 ± 0.039 µM	0.176 ± 0.017 µM	0.6 ± 0.054 µM	–	COc1cc(C(=O)Nc2c(C#N)c3n(c2C(=O)Nc2ccccc2)CCCC3)cc(OC)c1OC [compound 21, 1-Cyano-N-phenyl-2-(3,4,5-trimethoxybenzamido)-5,6,7,8-tetrahydroindolizine-3-carboxamide]	0.584 ± 0.094 µM	–	–	–	–
277 to 280 °C	0.214 µM	0.311 ± 0.041 µM	0.144 ± 0.049 µM	0.187 ± 0.098 µM	–	COc1cc(C=Nc2c(C#N)c3n(c2C(=O)Nc2ccc(Br)cc2)CCC3)cc(OC)c1OC [15e, N-(4-Bromophenyl)-7-cyano-6-((3,4,5-trimethoxybenzylidene)amino)-2,3-dihydro-1H-pyrrolizine-5-carboxamide]	17.1 ± 0.552 µM	54.92	118.61	91.24	–
286 to 288 °C	0.483 µM	0.914 ± 0.092 µM	0.173 ± 0.039 µM	0.361 ± 0.039 µM	–	COc1cc(C(=O)Nc2c(C#N)c3n(c2C(=O)Nc2ccc(Br)cc2)CCC3)cc(OC)c1OC [16e, N-(4-Bromophenyl)-7-cyano-6-(3,4,5-trimethoxybenzamido) -2,3-dihydro-1H-pyrrolizine-5-carboxamide]	5.26 ± 1.4 µM	5.75	30.40	14.57	–
251 to 253 °C	29.7 µM	33.4 ± 3.73 µM	19.8 ± 7.76 µM	35.9 ± 4.44 µM	–	COc1cc(C=Nc2c(C#N)c3n(c2C(=O)Nc2ccc(C)cc2)CCC3)cc(OC)c1OC [15b, 7-Cyano-N-(p-tolyl)-6-((3,4,5-trimethoxybenzylidene)amino) -2,3-dihydro-1H-pyrrolizine-5-carboxamide]	3.33 ± 1 µM	0.10	0.17	0.09	–
